Assay results: patent US7465559B2, “Method for calibrating antibiotic disk diffusion testing of microorganisms” (Bioscand AB, priority 2001, dated 2008)

How the values were obtained:
[1] = system: Escherichia coli isolates; test: disk diffusion test of Escherichia coli clinical isolates against norfloxacin, Karolinska hospital, zone diameter histograms 1988 and 1999; format: cell-based
Experimental: (§1) Different types of susceptibility tests can be used to test the antimicrobic susceptibility of a microorganism. One type of susceptibility test is the disk diffusion test. This is a standardized test, in which a plate containing a growth medium in agar gel is inoculated with a microbial isolate and one or more disks impregnated with fixed concentrations of antibiotics are placed thereon. After appropriate incubation, the diameter of zones of inhibition around the disks (if present) are registered in order to determine the sensitivity of the inoculated microorganism to the particular antimicrobial agent impregnated in each disk.
The microbial species to be tested can be any cultivable microorganism, such as a bacterial species or a fungal species. In order to obtain species-related and laboratory-related interpretive breakpoints, a histogram of for example clinical isolates can be used. The method is especially suitable for analyzing inhibition zone diameters from disk diffusion tests with clinical isolates from a bacterial species, which may contain resistant strains against an antibiotic. Thus, no outliers are excluded. The number of isolates or percent isolates are plotted on the y-axis and the growth inhibition zone diameter values from paper disks impregnated with the antibiotic are plotted on the x-axis. When the method of O'Brien et al. (J. Am. Med. Assoc. 210:84, 1969) is used, histograms are obtained with percent isolates on the y-axis and zone diameter values from 6 mm (paper disk diameter) to 60 mm on the x-axis. However, the inventive method is equally well adapted for a microdilution tests, the concentration data being minimal inhibitory concentrations. All data can be computerized.
It can be seen that the zone diameter values for these clinical isolates cluster around 29-30 mm with a distribution of ±8 mm.
The results from 1988 in FIG. 1 were compared with similar results eleven years later (FIG. 2). In this histogram a number of isolates now appear, which have inhibition zones all the way down to no zone, the size of the 6 mm disk. The comparison was accomplished by means of computer analysis according to the inventive method for calibrating antimicrobic susceptibility testings of microorganisms.
First, the slope downwards was tracked and the shift to decreasing values at the peak position identified by comparing sliding means (each based on two zone diameter figures). Then, the percentages of the isolates of the upper half of the population were determined and converted to probit values. A regression using the least squares method was then performed and the theoretical percentages for the whole population calculated.
In this calculation, it is assumed that 3 SD below the mean includes 99.86 percent of the normally susceptible strains in this group. A suitable limit for susceptibility interpretation and comparative analysis of antimicrobic resistance could then be defined as three times the standard deviation below the mean value.

E. coli [2] = test: disk diffusion test of E. coli against gentamicin, laboratory AR (South America), NCCLS standardization; format: cell-based, Escherichia coli; settings: 5 μg gentamicin disk
Experimental: as §1
(§2) In this example histograms of zone diameter values from disk test results for E. coli tested against the antibiotic gentamicin were analyzed according to the principle of normalized resistance interpretation. One laboratory (KS) used the SRGA (Swedish Reference Group for Antibiotics) methodology and a disk content of 10 μg gentamicin, whereas the other laboratory on a different continent (AR, a clinical microbiology laboratory in South America) used the NCCLS (National Committee for Clinical Laboratory Standards) standardization and a 5 μg gentamicin disk.
(§3) The different methods used result in different positionings of the major, susceptible populations of strains (FIG. 5). […]

E. coli [3] = test: disk diffusion test of E. coli against gentamicin, laboratory KS, SRGA methodology; format: cell-based, Escherichia coli; settings: 10 μg gentamicin disk
Experimental: as §1, §2, §3

CCn1cc(C(=O)O)c(=O)c2cc(F)c(N3CCNCC3)cc21 [norfloxacin]
mean value of inhibition zone diameters, customary statistical procedure ([1]; 1988, 3756 isolates, disk 10 μg, SD 3.22): 29.16 mm
mean of normalized Gaussian distribution of theoretical normal population ([1]; 1988, 3756 isolates, disk 10 μg, SD 3.25): 29.27 mm
zone diameter values of clinical isolates cluster around ([1]; 1988 histogram, disk content 10 μg, distribution ±8 mm): 29-30 mm
limit for resistance (zone breakpoint, 3 SD below normalized mean) ([1]; 1988 population): 19 mm
percent resistance of isolates ([1]; 1988 population, limit 19 mm): 0.56%
limit for resistance (zone breakpoint, 3 SD below normalized mean) ([1]; 1999 population): 20 mm
percent resistance of isolates ([1]; 1999 population, limit 20 mm): 10.8%
mean of normalized Gaussian distribution of theoretical normal population ([1]; eleven years later (1999), 5944 isolates, SD 3.22): 30.49 mm
mean value of inhibition zone diameters, customary statistical procedure ([1]; eleven years later (1999), all 5944 isolates, SD 7.39): 28.24 mm

gentamicin
R-limit for resistance (normalized zone breakpoint) (E. coli [2]): < 17 mm
R-limit for resistance (normalized zone breakpoint) (E. coli [3]): < 21 mm
